The source of these data is PMC10336128, “In vitro efficacy of different PEGylation designs on cathelicidin-like peptide with high antibacterial and antifungal activity” (Scientific Reports, 2023).

Like-named read-outs stand apart in the source and are kept apart here. No end group written: not given here.

In data set [1] the test system is P. aeruginosa ATCC 27853. In words: microbe, parasite or virus in culture. Type of data set: cell-based, Pseudomonas aeruginosa. As to the method: (§1) Staphylococcus aureus (S. aureus ATCC 25923), Escherichia coli (E. coli ATCC 25922), Pseudomonas aeruginosa (P. aeruginosa ATCC 27853), Candida albicans (C. albicans ATCC 10231), methicillin-resistant S. aureus (MRSA, ATCC 33591) and vancomycin-resistant Enteroccus faecium (VRE-faecium, ATCC BAA-2316) were grown in MHA at 37 °C, overnight. A colony was then selected and transferred to MHB. Each bacterial solution in the MHB was adjusted to 0.5 McFarland with OD600 value between 0.08 and 0.1 using UV–Vis spectrophotometer (NanoDrop™ One/OneC Microvolume, Thermo Scientific). Afterward, 0.5 McFarland bacteria cultures were diluted in MHB at a ratio of 1:100. The peptide/conjugate concentration was quantified using a UV–Vis spectrophotometer at 214 nm. Serial dilutions of peptide and conjugates (1024–0.5 µg/mL) were prepared in MHB with a total volume of 95 µL in a round-bottom 96-well plate. Of the prepared bacterial suspensions, 5 µL was added into sample dilutions in each prepared well. Ampicillin (GeneMark) was used as a positive control and bacterial solution alone was used as a negative control. All 96-well plates were incubated overnight at 37 °C, and all samples were prepared in triplicate. Then, samples were measured at 600 nm using a microplate reader (Gen5 Synergy HT BioTek, USA)[31].

Data set [2] deals with E. coli ATCC 25922. In words: microbe, parasite or virus in culture. The class given is cell-based, Escherichia coli. As to the method: as §1
Data set [3] deals with S. aureus ATCC 25923. In words: microbe, parasite or virus in culture. The class given is cell-based, Staphylococcus aureus. The protocol: as §1
Data set [4] has as its system C. albicans ATCC 10231. Kind of data set: microbe, parasite or virus in culture. The class given is cell-based, Candida albicans. As to the method: as §1
Data set [5] relates to VRE-faecium ATCC BAA-2316. Kind of data set: organism not typed. The class given is cell-based, vancomycin-resistant Enteroccus faecium. As to the method: as §1
The test system of data set [6] is MRSA ATCC 33591. In words: microbe, parasite or virus in culture. Type of data set: cell-based, methicillin-resistant S. aureus. As to the method: as §1
A short description of data set [7]: MTT cytotoxicity assay. The following applies: for CC50 at 24 h: human, HaCaT keratinocyte cells; for IC50 at 24 h: mouse. The class given is cell-based. As to the method: Human skin keratinocyte (HaCaT, HEKa, PCS-200-011™, ATCC) and mouse embryonic fibroblast (3T3, CRL-1658™, ATCC) cells were counted to 5 × 10^4 cells/well in 100 µL of DMEM containing 10% FBS, and 1% Pen/Strep antibiotics were placed in a flat-bottom 96-well plate and incubated in 5% CO2 at 37 °C. After 24 h, the medium on the attached cells was discarded. Serial peptide/conjugate dilutions (1024–0.5 µg/mL) prepared in complete DMEM (100 µL of total volume) in triplicate were added to the cell-seeded plates and incubated in 5% CO2 at 37 °C for 24 h. Cytotoxicity was determined using the 3-(4, 5-dimethylthiazol-2-yl)-2, 5-diphenyltetrazolium bromide assay kit (MTT, Cell Proliferation Kit, Roche) following the kit procedure and measured at 550 nm and 690 nm using a microplate reader. Cytotoxicity was calculated according to the cell control samples in complete DMEM.
On the technique in general: Formazan colour is commonly taken as a measure of viable cells.

The test system of data set [8] is human erythrocytes. Kind of data set: Hemolytic activity assay. Type of data set: cell-based. As to the method:
(§2) 300 µL of fresh human blood (Acibadem Mehmet Ali Aydinlar University, Istanbul, Turkey) was suspended in 20 mL of sterile tris-saline (150 mM NaCl, 10 mM Tris, pH 7.2) solution and centrifuged 3 times at 1500 rpm for 5 min. Pellet was dissolved with 100 mL of tris-saline and 100 µL blood mix was added into each well of a round-bottom 96-well plate. Serial peptide/conjugate dilutions (1024–0.5 µg/mL) prepared in tris-saline (100 µL of total volume) in triplicate were added on top of the blood mix. 10% DMSO prepared in Triton X-100 treated with blood mix used as a positive control, and the blood mix itself was used as a negative control. The samples were kept on separate round-bottom 96-well plates at 37 °C for 30 min and 1 h, respectively, to examine two different conditions. After incubations, the 96-well plates were centrifuged at 1500 rpm for 10 min. The supernatants were then transferred into a new round-bottom 96-well plate for measurement at 414 nm using a microplate reader. The lysis percentage of the peptide/conjugate was calculated using Eq. (1) as follows:1 Hemolysis%=Sample414nm-Negativecontrol414nm/Positivecontrol414nm-Negativecontrol414nm×100

Data set [9] has as its system human erythrocytes. Kind of data set: Cell-associated hemolytic activity assay (with S. aureus ATCC 25923). Type of data set: cell-based. The note with it: human erythrocytes plus S. aureus ATCC 25923 (5 µL of 1.5 × 10^6 CFU/mL), tris-saline, 37 °C, read at 414 nm, three replicates. The protocol: as §2
S. aureus ATCC 25923 bacterial solution in MHB was prepared as in the minimum inhibitory concentration (MIC) experiment. […]

The test system of data set [10] is plasma proteases. The class given is in vitro ADME, human. As to the method: To separate human plasma, EDTA-treated fresh human blood from a healthy donor (Acibadem Mehmet Ali Aydinlar University, Istanbul, Turkey) was centrifuged at 1500 rpm for 5 min, and the supernatant was collected. The peptide and conjugates were mixed with human plasma to a final concentration of 0.1 mg/mL (1.7 µL, 2048 µg/mL sample completed with plasma) and incubated at 37 °C, 1500 rpm in a shaker. Aliquots were collected after 0 h, 6 h, and 24 h incubation and stored at – 20 °C[32]. 5 µL protease inhibitor was added onto 35 µL aliquots.
S. aureus ATCC 25923 was cultured in MHA overnight at 37 °C. A colony was then selected and transferred to MHB. The bacterial solution was adjusted to 0.5 McFarland with OD600 value between 0.08 and 0.1 using UV–Vis spectrophotometer and diluted to a 1:200 ratio in MHB. 5 µL of the bacterial suspension was added into serial dilutions of aliquots prepared in MHB (40 µL of total volume) in a round-bottom 96-well plate and incubated overnight at 37 °C. Afterward, 96-well plates were measured at 600 nm using a microplate reader. All samples were prepared in triplicate.

For `CC1(C)S[C@@H]2[C@H](NC(=O)[C@H](N)c3ccccc3)C(=O)N2[C@H]1C(=O)O` [Ampicillin, reference compound], the MIC in data set [1] (Pseudomonas aeruginosa, ATCC27853, P. aeruginosa ATCC 27853, serial dilution in MHB, 96-well, overnight 37 °C, OD 600 nm, triplicate, same results in all replicates, mass of whole conjugate, read-out: Minimum Inhibitory Concentration) is 256 µg/mL; in [2] (Escherichia coli, ATCC25922, E. coli ATCC 25922, serial dilution in MHB, 96-well, overnight 37 °C, OD 600 nm, triplicate, same results in all replicates, mass of whole conjugate, read-out: Minimum Inhibitory Concentration), 32 µg/mL; in [3] (Staphylococcus aureus, ATCC25923, S. aureus ATCC 25923, serial dilution in MHB, 96-well, overnight 37 °C, OD 600 nm, triplicate, same results in all replicates, mass of whole conjugate, read-out: Minimum Inhibitory Concentration), 8 µg/mL; in data set [4] (Candida albicans, ATCC10231, C. albicans ATCC 10231, serial dilution in MHB, 96-well, overnight 37 °C, OD 600 nm, triplicate, same results in all replicates, mass of whole conjugate, read-out: Minimum Inhibitory Concentration), 16 µg/mL; in [5] (VRE-faecium ATCC BAA-2316, serial dilution in MHB, 96-well, overnight 37 °C, OD 600 nm, triplicate, same results in all replicates, mass of whole conjugate, read-out: Minimum Inhibitory Concentration), 16 µg/mL; in data set [6] (Staphylococcus aureus, MRSA ATCC 33591, serial dilution in MHB, 96-well, overnight 37 °C, OD 600 nm, triplicate, same results in all replicates, mass of whole conjugate, read-out: Minimum Inhibitory Concentration) it was 32 µg/mL.
Consider “GIGKFLHSAKKFGKAFVGEIMNS [Mag-2, reference compound]”, for which the CC50 at 24 h in data set [7] (HaCaT cells, MTT, 24 h, 37 °C, DMEM 10% FBS, three replicates, maximum concentration tested 512 µg/mL, mass of whole conjugate, read-out: inhibitory concentration (IC50), cytotoxicity) is 258 µg/mL. Further, the IC50 at 24 h in data set [7] (3T3 cells, MTT, 24 h, 37 °C, DMEM 10% FBS, three replicates, mass of whole conjugate, read-out: inhibitory concentration (IC50), cytotoxicity) worked out at 153 µg/mL.
For the compound RLLRLLLRLLR-NH2 [TN6], the “Minimum Inhibitory Concentration” value was found to be 4 µg/mL in [1] (ATCC 27853); 1 µg/mL in data set [2] (ATCC 25922); 1 µg/mL in [3] (ATCC 25923); 1 µg/mL in [4] (ATCC 10231); 1.56 µg/mL in [5] (ATCC BAA-2316); 0.78 µg/mL in [6] (ATCC 33591). The “HC50 (dose killing 50% of the red blood cells), 60 min” value in data set [8] (human erythrocytes in tris-saline pH 7.2, 60 min, 37 °C, without bacteria, read at 414 nm, three replicates) is given as “hemotoxic effect at all doses”; in data set [8] (pH 7.2), “toxic even at 1 µg/mL”. Besides, the “hemolysis, 30 min” value in [8] (pH 7.2) is recorded as “well above the toxic dose (HC50)”. The “HC50, 60 min with S. aureus ATCC 25923” value in data set [9] is on record as “hemotoxic effect at all doses”. In [7], this compound displayed a CC50 at 24 h of 161 µg/mL. For the same compound, the IC50 at 24 h in data set [7] is 14.6 µg/mL. Further, the “MIC after plasma proteases, 0 h” value in data set [10] (0 h) worked out at 2.56 µg/mL. Also, the “MIC after plasma proteases, 6 h” value in data set [10] (6 h) is 2.56 µg/mL. In [10] (24 h), the “MIC after plasma proteases, 24 h” value is 5.12 µg/mL.
